Laboratory results published in US20090215638A1, “ANTIBIOTIC SUSCEPTIBILITY AND VIRULENCE FACTOR DETECTION IN PSEUDOMONAS AERUGINOSA” (priority 2005, published 2009).

Columns and labels:
[1] = tested on: P. aeruginosa clinical isolates; test: Antibiotic susceptibility testing, NEG MIC Type 30 panel on MicroScan WalkAway-96 SI, MICs interpreted according to NCCLS guidelines; format: cell-based, Pseudomonas aeruginosa; conditions: for 60 MIC: MIC of resistant isolates
Source text: The wild-type reference strain P. aeruginosa PAO1 was obtained from the ATCC (AT47085). The other P. aeruginosa strains were collected from patients at the Robert Bosch Hospital in Stuttgart, Germany. They were recovered from respiratory samples (n=51), swabs (n=5), urine (n=2) and feces (n=2). All isolates were identified with the API 20NE system (bioMerieux, Marcy l'Etoile, France) and the NEG Breakpoint Combo Type 30 panel on the MicroScan WalkAway ®-96 SI system (Dade Behring, Liederbach, Germany). All bacterial strains were either routinely cultured at 37° C. on Mueller-Hinton (MH) agar or grown in Luria Bertani broth (LB).
The antibiotic susceptibility was determined with the NEG MIC Type 30 panel on the MicroScan WalkAway ®-96 SI system. The MICs were interpreted according to the NCCLS guidelines.
The test collective of P. aeruginosa isolates was recovered from three intensive care units (ICU) or other hospital wards as far as an unusual multidrug resistance was observed. […] 4.

[2] = tested on: P. aeruginosa clinical isolates; set-up: species or system Pseudomonas aeruginosa; conditions: predicted from mutations and resistance genes found by array in 60 isolates
Procedure: Chromosomal DNA was extracted with the QIAmp DNA Mini Kit, plasmid DNA with the QIAprep Spin Miniprep Kit according to manufacturer's instructions (Qiagen, Hilden, Germany). A set of 4 multiplex PCRs (Tab. 1) was set up to amplify the sequences of interest from the chosen genes. The PCRs were carried out with the Advantage®-GC Genomic PCR Kit (BD Bioscience, San Jose, USA) according to manufacturer's instructions, for fluorescence labeling 5 μl of each 1 mM dNTP was used, for dCTP a 2:3 mixture of Cy3-dCTP and dCTP. The cycle reactions consisted of 30 cycles of 30 s at 95° C., 30 s at 55° C. and 1 min at 72° C. PCR products were purified with the QIAquick PCR Purification Kit (Qiagen, Hilden, Germany) according to the manufacturer's instructions. The quality and sizes of PCR products were checked on a lab-on-a-chip Bioanalyzer 2100 electrophoresis with the DNA 1500 LabChip kit (Agilent, Böblingen, Germany). Sequencing was performed on the ABI PRISM® 310 Genetic Analyzer using the BigDyee® Terminator Cycle Sequencing Kit v1.1 (Applied Biosystems, Foster City, USA). The manufacturer's protocol was followed using the same primers as for the multiplex PCRS. […]
The oligonucleotide arrays were scanned with a arrayWoRx Biochip Reader (Applied Precision, Marlborough, UK). The scanner settings for fluorescence signal acquisition were set to “High Precision” and 0.2 s acquisition time. […]

[3] = Table 3, test collective of 60 clinical isolates
[4] = Table 6, phenotypic resistance rate, 60 clinical isolates
[5] = Table 6, phenotypic resistance, 60 clinical isolates

| Compound | % of resistant isolates out of 60 [1, 3] | Number of resistant isolates out of 60 [1, 3] | % of resistant isolates out of 60 [1, 4] | Number of resistant isolates out of 60 [1, 5] | resistance rate ([1]; test collective of isolates) | Cumulative resistance predicttion deduced from array [2] | 60 MIC ([1]; Table 6) | susceptibility rate ([1]; test collective of isolates) | Susceptibility profile, Isolate 1 ([1]; first of 3 consecutive isolates from the same patient) | Susceptibility profile, Isolate 3 ([1]; last of 3 consecutive isolates from the same patient, within three weeks) | Susceptibility profile, Isolate 2 ([1]; second of 3 consecutive isolates from the same patient, collected one week after the first) |
| --- | --- | --- | --- | --- | --- | --- | --- | --- | --- | --- | --- |
| colistin | 0% | 0 | 0% | 0 | 0% | 0% | – | – | – | – | – |
| piperacillin/tazobactam | 33% | 20 | 33% | 20 | – | – | >64 µg/mL | – | – | – | – |
| CC(C)(O/N=C(\C(=O)N[C@@H]1C(=O)N2C(C(=O)[O-])=C(C[n+]3ccccc3)CS[C@H]12)c1csc(N)n1)C(=O)O [Ceftazidim, ceftazidime] | 33% | 20 | 33% | 20 | – | – | >16 µg/mL | – | – | – | – |
| C[C@@H](O)[C@H]1C(=O)N2C(C(=O)O)=C(SCCN=CN)C[C@H]12 [Imipenem, imipenem] | – | – | – | – | – | – | – | less than 55% | – | – | – |
| NC[C@H]1O[C@H](O[C@H]2[C@H](O)[C@@H](O[C@H]3O[C@H](CO)[C@@H](O)[C@H](N)[C@H]3O)[C@H](N)C[C@@H]2N)[C@H](N)C[C@@H]1O [Tobramycin, tobramycin] | – | – | – | – | – | – | – | – | susceptible | resistance | susceptible |
| gentamicin | 37% | 22 | 37% | 22 | – | 45% | >8 µg/mL | – | – | – | – |
